Several values for one entry are separate records, joined by “and”; a condition that tells them apart may be missing. Identical values can stand only once.
Experiments:
[1] = test system: A549 lung carcinoma cells; assay: Antiproliferative activity, crystal violet assay; assay type: cell-based; conditions: 72 h exposure, SD in parentheses, n = 3
Experimental: (§1) The antiproliferative potential of the gold–NHC complexes was determined in A549 lung carcinoma cells, MDA-MB-231 breast cancer cells, MCF-7 breast adenocarcinoma cells, and HT-29 colon carcinoma cells (Table 1). Vero E6 African green monkey kidney cells served as a reference cell line to check for possible tumour selectivity. Auranofin (AF) was used as an established reference drug.[15,17] […]
(§2) S2.2. Cytotoxicity and Anticancer Studies
(§3) Cell culture and cytotoxicity
(§4) Cell lines were sourced from DSMZ (German Collection of Microorganisms and Cell Cultures GmbH) and maintained through standard procedures in Dulbecco's Modified Eagle Medium (DMEM) supplemented with 10% fetal calf serum and 50 mg/L gentamycin. Antiproliferative effects were assessed using a well-established assay protocol. In brief, 100 μL volumes of A549 cells (13,243 cells per mL), HT-29 cells (14,657 cells per mL), MDA-MB-231 cells (6,613 cells per mL), or MCF-7 cells (6,917 cells per mL) were transferred into the wells of 96-well plates and incubated at 37°C/5% CO2 for 72 […]
(§5) Freshly prepared stock solutions of the compounds in DMSO were diluted with the respective cell culture medium to achieve graded concentrations (final concentration of DMSO: 0.1% v/v). After 72 hours (A549, HT-29) or 96 hours (MCF-7, MDA-MB-231) of exposure, the cell biomass was assessed through crystal violet staining, and the IC50 value was determined as the concentration causing 50% inhibition of cell proliferation compared to an untreated control. Results were calculated as the mean values of three independent experiments.

[2] = test system: HT-29 colon carcinoma cells; assay: Antiproliferative activity, crystal violet assay; assay type: cell-based; conditions: 72 h exposure, SD in parentheses, n = 3
Experimental: as §1, §2, §3, §4, §5

[3] = test system: MCF-7 breast adenocarcinoma cells; assay: Antiproliferative activity, crystal violet assay; assay type: cell-based; conditions: 96 h exposure, SD in parentheses, n = 3
Experimental: as §1, §2, §3, §4, §5

[4] = test system: MDA-MB-231 breast cancer cells; assay: Antiproliferative activity, crystal violet assay; assay type: cell-based; conditions: 96 h exposure, SD in parentheses, n = 3
Experimental: as §1, §2, §3, §4, §5

[5] = test system: Vero E6 African green monkey kidney cells; assay: Antiproliferative activity in non-tumour reference cell line; assay type: cell-based; conditions: for IC50: Vero E6 non-tumour reference cell line, SD in parentheses, n = 3; for Tumour selectivity: tumour cell lines in comparison to Vero E6: comparison of IC50 in tumour cell lines and non-tumour Vero E6
Experimental: as §1, §2, §3, §4, §5

[6] = test system: Acinetobacter baumannii DSM30007; assay: Antibacterial activity (MIC, curve fitting); assay type: cell-based; conditions: for MIC, A.b.: Table 2, Acinetobacter baumannii DSM30007, 18 h, 37 °C; for MIC, A. baumannii: Table S12, ± standard error of the mean
Experimental: (§6) The antibacterial activity of all gold complexes was assessed against six pathogenic bacterial strains, including two Gram-positive species, i.e. Enterococcus faecium and methicillin-resistant Staphylococcus aureus (MRSA), and four Gram-negative species, i.e. Acinetobacter baumannii, Escherichia coli, Klebsiella pneumoniae, and Pseudomonas aeruginosa. Minimum inhibitory concentrations (MICs) were determined using a curve-fitting technique.
(§7) S2.1. Antibacterial Studies
(§8) Bacterial cultures were prepared by overnight aerobic incubation at 37 °C. Gram-negative strains were cultivated in Müller Hinton broth supplemented with 1% glucose at pH 7.2, while Gram-positive strains were grown in Trypticase soy yeast extract medium (TSY) with a composition of 30 g/l trypticase soy broth, 3 g/l yeast extract, and pH 7.2. The cultures were adjusted to an OD600 of 0.001, resulting in a final starting OD600 of 0.0005 for the subsequent tests. For testing, 25 μL of the prepared culture was combined with 25 μL of serially diluted test compounds in 384 well plates, following established protocols for different strains. Screening was performed at compound concentrations of 0.5, 5, and 50 µM, and for selected compounds, growth inhibition curves were recorded using DMSO stock solutions […]
(§9) Positive control compounds, namely linezolid (for MRSA strains), ciprofloxacin (for E. faecium and E. coli), and amikacin (for P. aeruginosa), were included. The maximum DMSO concentration in the assay […]
(§10) After an 18-hour incubation at 37 °C under moist conditions, the optical density at 600 nm was measured using a Fusion Universal Microplate Analyser (Perkin–Elmer, Waltham, USA). The minimum inhibitory concentration (MIC) values, representing the […]
(§11) fitting with Sigma Plot. The bacterial strains used included Gram-negative strains: Escherichia coli (DSM 1116), A. baumannii (DSM30007), K. pneumoniae (DSM111678), and Pseudomonas aeruginosa PA7 (DSM 24068); and Gram-positive strains: E. faecium (DSM20477) and Staphylococcus aureus MRSA

[7] = test system: Enterococcus faecium DSM20477; assay: Antibacterial activity (MIC, curve fitting); assay type: cell-based; conditions: for MIC, E.f.: Table 2, Enterococcus faecium DSM20477, 18 h, 37 °C; for MIC, E. faecium: Table S12, ± standard error of the mean
Experimental: as §6, §7, §8, §9, §10, §11

[8] = test system: Escherichia coli DSM 1116; assay: Antibacterial activity (MIC, curve fitting); assay type: cell-based; conditions: for MIC, E.c.: Table 2, Escherichia coli DSM 1116, 18 h, 37 °C; for MIC, E. coli: Table S12, ± standard error of the mean
Experimental: as §6, §7, §8, §9, §10, §11

[9] = test system: Klebsiella pneumoniae DSM111678; assay: Antibacterial activity (MIC, curve fitting); assay type: cell-based; conditions: for MIC, K.p.: Table 2, Klebsiella pneumoniae DSM111678, 18 h, 37 °C; for MIC, K. pneumoniae: Table S12, ± standard error of the mean
Experimental: as §6, §7, §8, §9, §10, §11

[10] = test system: Pseudomonas aeruginosa DSM 24068; assay: Antibacterial activity (MIC, curve fitting); assay type: cell-based; conditions: for MIC, P.a.: Table 2, Pseudomonas aeruginosa DSM 24068, 18 h, 37 °C; for MIC, P. aeruginosa: Table S12, ± standard error of the mean
Experimental: as §6, §7, §8, §9, §10, §11

[11] = test system: methicillin-resistant Staphylococcus aureus DSM 11822; assay: Antibacterial activity (MIC, curve fitting); assay type: cell-based
Experimental: as §6, §7, §8, §9, §10, §11

[12] = molecular target: TrxR from E. coli (Escherichia coli, UniProt P0A9P4); assay: Inhibition of isolated bacterial TrxR, DTNB-based assay; assay type: biochemical; set-up: purchased Sigma-Aldrich; conditions: for IC50: isolated E. coli TrxR, DTNB assay, ± standard deviation, n = 3; for TrxR activity, % of control: compounds at 0.5 µM, n = 2, Table S13
TrxR from E. coli, sequence (P0A9P4 2-321): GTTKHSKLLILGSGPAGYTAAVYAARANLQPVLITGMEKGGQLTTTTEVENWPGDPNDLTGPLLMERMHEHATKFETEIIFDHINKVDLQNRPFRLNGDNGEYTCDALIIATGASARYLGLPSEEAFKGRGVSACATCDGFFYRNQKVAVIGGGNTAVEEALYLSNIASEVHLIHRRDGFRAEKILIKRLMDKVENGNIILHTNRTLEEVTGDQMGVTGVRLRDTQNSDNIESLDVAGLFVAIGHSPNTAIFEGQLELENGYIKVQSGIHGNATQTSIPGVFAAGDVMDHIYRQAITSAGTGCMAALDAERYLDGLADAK
Experimental: The inhibition of isolated TrxR from E. coli was determined for the selected monocarbene gold(I/III) complexes 2a–c and 4b–c using a DTNB-based assay (Table 3). […] The inhibition of bacterial TrxR for compound 2a was investigated in our previous report (Table 3).
S2.3. Inhibition of bacterial TrxR from E. coli
The TrxR (E. coli) inhibition assay was performed according to previously published procedures.[8] The assay is partly based on the procedure developed by Lu et al[9] and makes use of the reduction of DTNB (5,5′-dithiobis-(2-nitrobenzoic acid)). Solutions of E. coli TrxR (10.1 U/mL) and E. coli thioredoxin (Trx) (312 μg/mL) (both purchased from Sigma-Aldrich) were prepared in distilled water. Stock solutions of the test compounds (2 mM) were prepared in DMSO and serially diluted with TE buffer (Tris-HCl 50 mM, EDTA 1 mM, pH 7.5). 20 μL of these solutions or TE buffer without the test compounds (positive control) were mixed with the TrxR solution (10 μL), the Trx solution (10 μL) and 100 µl of NADPH (200 μM) in TE buffer in a well on a 96-well plate. As a blank control, 200 μM NADPH in TE buffer (100 μL) mixed with a DMSO / buffer mixture (40 μL) was used (final concentrations of DMSO: 0.5% v/v). The plate was incubated for 75 min at 25°C with moderate shaking. After incubation, 100 μL of a reaction mixture (TE buffer containing 200 μM NADPH and 5 mM DTNB) was added to each well to initiate the reaction. After thorough mixing, the formation of 5-TNB was monitored by a microplate reader at 405 nm in 35 s intervals (10 measurements). The values were corrected by subtraction of the blank solution absorption values. The increase in concentration of 5-TNB followed a linear trend (r2≥ 0.990) and the enzymatic activities were calculated as the gradients (increase in absorbance per second) thereof. […]
for each test compound, where the highest test compound concentration was used and the enzyme solution was replaced by TE buffer. The inhibition is presented as the mean IC50 values and standard deviations obtained in three independent experiments.
Table S13. Activity of TrxR from E. coli in presence of compounds at 0.5 µM (n = 2, n.d.= not

[13] = Table 2, MRSA DSM 11822, 18 h, 37 °C
[14] = Table S12, ± standard error of the mean

Structure (SMILES)	IC50 [1]	IC50 [2]	IC50 [3]	IC50 [4]	IC50 [5]	MIC, A.b. [6]	MIC, A. baumannii [6]	MIC, E.f. [7]	MIC, E. faecium [7]	MIC, E.c. [8]	MIC, E. coli [8]	MIC, K.p. [9]	MIC, K. pneumoniae [9]	MIC, P.a. [10]	MIC, P. aeruginosa [10]	MIC, MRSA [11, 13]	MIC, MRSA [11, 14]	IC50 [12]	Tumour selectivity: tumour cell lines in comparison to Vero E6 [5]	TrxR activity, % of control [12]
CC(=O)OC[C@H]1O[C@@H]([S-])[C@H](OC(C)=O)[C@@H](OC(C)=O)[C@@H]1OC(C)=O.CCP(CC)CC.[Au+] [AF, auranofin, reference compound]	3.53 µM	4.32 µM	1.89 µM	0.8 µM	2.4 µM	55 µM	55 µM	0.3 µM	0.3 µM	46 µM	46 µM	81 µM	81 µM	>100 µM	> 100 µM	0.4 µM	0.4 µM	0.21 ± 0.03 µM		
COC(=O)c1cn(C)[c]([Au-][c]2n(C)cc(C(=O)OC)[n+]2C)[n+]1C.O=S(=O)([O-])C(F)(F)F [3b]	5.21 µM	27.7 µM	34.4 µM	19.2 µM	> 100 µM		> 100 µM		> 100 µM		> 100 µM		> 100 µM		> 100 µM		> 100 µM		clear preference for the tumour cell lines	106 % of control
Cn1cc(C(=O)O)[n+](C)[c]1[Au-][c]1n(C)cc(C(=O)O)[n+]1C.[Cl-] [3a]							31.2 ± 4.90 µM		> 100 µM		62.4 ± 0 µM		62.4 ± 0 µM		62.4 ± 0 µM		> 100 µM			
CCOC(=O)c1cn(C)[c]([Au-][c]2n(C)cc(C(=O)OCC)[n+]2C)[n+]1C.F[B-](F)(F)F [3c]	1.07 µM	5.78 µM	4.64 µM	2.51 µM	31.5 µM		> 100 µM		> 100 µM		> 100 µM		> 100 µM		> 100 µM		25.79 ± 0 µM		clear preference for the tumour cell lines	115 % of control
CCOC(=O)c1cn(C)[c]([Au-][Cl])[n+]1C [2c]	10.4 µM	22.1 µM	9.93 µM	8.9 µM	13.1 µM	10 µM and 10 ± 2 µM	9.98 ± 2.07 µM	10 µM and 10 ± 0 µM	9.98 ± 0 µM	40 µM and 40 ± 0 µM	39.94 ± 0 µM	40 µM and 40 ± 0 µM	39.94 ± 0 µM	>100 µM	> 100 µM	10 µM and 10 ± 0 µM	9.98 ± 0 µM	0.133 ± 0.044 µM		13.8 % of control
COC(=O)c1cn(C)[c]([Au-][Cl])[n+]1C [2b]	22.7 µM	19.8 µM	23.8 µM	12.8 µM		10 µM and 10 ± 0 µM	10.35 ± 0 µM	10 µM and 10 ± 0 µM	10.35 ± 0 µM	41 µM and 41 ± 0 µM	41.39 ± 0 µM	41 µM and 41 ± 0 µM	41.39 ± 0 µM	>100 µM	> 100 µM	10 µM and 10 ± 0 µM	10.35 ± 0 µM	0.293 ± 0.163 µM		8.9 % of control

Source: article PMC11342128, “Gold(I) and gold(III) carbene complexes from the marine betaine norzooanemonin: inhibition of thioredoxin reductase, antiproliferative and antimicrobial activity” (RSC Medicinal Chemistry, 2024)
